Reference: US8901118B2, “Compounds and methods for kinase modulation, and indications therefor” (Plexxikon Inc., priority 2010, dated 2014)

Columns and labels:
TrkA kinase = TrkA kinase (Homo sapiens, UniProt P04629); assay: TrkA kinase biochemical activity assay (AlphaScreen); conditions: 100 μM ATP; read-out: Biochemical Inhibition IC50 TrkA
Protocol: In one assay the biochemical activity IC50 values are determined with respect to inhibition of TrkA kinase activity, where inhibition of phosphorylation of a peptide substrate is measured as a function of compound concentration. Compounds to be tested, dissolved in DMSO (1 μL), are added to a white 384-well plate (Costar #3705). Working stocks of TrkA kinase (UBI), biotin-(E4Y)10 substrate (Upstate Biotech, Cat#12-440), and ATP (Sigma, Cat#A-3377) are prepared in 25 mM Hepes pH 7.5, 10 mM MnCl2, 1 mM DTT, 0.01% BSA, and 0.01% Tween-20. All components are added to the 384-well plate for a final concentration of 1 ng/well TrkA, 30 nM biotin-(E4Y)10 and 100 μM ATP in a volume of 20 μL. Each sample is at 5% DMSO. The plate is shaken for 1 minute at 1200 rpm, spun for 1 minute at 1000 rpm, then incubated for 40 minutes at room temperature. Just before use, working stocks of donor and acceptor beads from the AlphaScreen PY20 Detection Kit (PerkinElmer, Cat#676601M) are prepared in 25 mM Hepes pH 7.5, 100 mM EDTA. 0.01% BSA. Donor Beads solution (Streptavidin beads) is added (5 μL) to each well to final bead concentration of 10 μg/mL. The plate is incubated at room temperature for 20 minutes. Acceptor Beads solution (PY20 coated beads) are then added to each well (5 μL) to a final concentration of bead at 10 μg/mL. The plates are incubated at room temperature for 60 minutes. Fluorescence signal is recorded on the Envision reader. Phosphorylated substrate results in binding of the PY20 antibody and association of the donor and acceptor beads such that signal correlates with kinase activity. The signal vs. compound concentration is used to determine the IC50. Similar assays are used for TrkB and Trk C kinase.

[1] = Relative solubility by turbidity in aqueous buffers (pH 1.5, 4.5, 6.8, 7.4); assay type: physicochemical; conditions: for turbidity threshold (L, M, H) 1.4: pH 1.5 (SGF); for turbidity threshold (L, M, H) 4.5: pH 4.5 (SIF); for turbidity threshold (L, M, H) 6.8: pH 6.8 (SIF); for turbidity threshold (L, M, H) 7.4: pH 7.4 (HEPES)
Protocol: As an indication of relative solubility, the turbidity of compounds in aqueous solutions is assessed. To assess possible compound properties in different physiological compartments, such as stomach, intestine, and blood, a series of aqueous buffers with varying pH is used. Thus each compound is diluted into four different physiologically relevant buffers and solution turbidity is measured by spectrophotometry.
Compounds are dissolved at a concentration of 25 mM in dimethyl sulfoxide, then serially diluted 1:1 into a 96 well plate, diluting 10 times in pure dimethyl sulfoxide, with the final well of each row a dimethyl sulfoxide blank. In an assay plate, 99 μL of appropriate buffer is added to each well, and 1 μL of each sample dilution is added to the buffer, achieving a range of final total concentrations in aqueous solutions having different pH. The buffers used are Simulated Gastric Fluid (SGF-pH 1.5) 0.5M NaCl, pH 1.5; Simulated Intestinal fluid (SIF-pH 4.5 and pH 6.8) 0.05M NaH2PO4, pH 4.5 and 6.8; and Hepes Buffer (HEPES-pH 7.4) 10 mM HEPES, 150 mM NaCl, pH 7.4. Control compounds pyrene, estriol and propranolol HCl are also assessed. Plates are spun and then mixed for 1 minute, and the absorbance is read using a Tecan Safire II to read wavelengths in the visible range (490, 535, and 650 nm) at four locations per well, reflecting the degree of turbidity present. The average optical density for each wavelength in each well is graphed vs. compound concentration, and the concentration at which the curve crosses a threshold O.D. of 0.01 for each wavelength is reported as the endpoint turbidity assay result. The average of the three wavelengths is used to compare turbidity of compounds.

TrkA kinase, sequence (P04629 33-796): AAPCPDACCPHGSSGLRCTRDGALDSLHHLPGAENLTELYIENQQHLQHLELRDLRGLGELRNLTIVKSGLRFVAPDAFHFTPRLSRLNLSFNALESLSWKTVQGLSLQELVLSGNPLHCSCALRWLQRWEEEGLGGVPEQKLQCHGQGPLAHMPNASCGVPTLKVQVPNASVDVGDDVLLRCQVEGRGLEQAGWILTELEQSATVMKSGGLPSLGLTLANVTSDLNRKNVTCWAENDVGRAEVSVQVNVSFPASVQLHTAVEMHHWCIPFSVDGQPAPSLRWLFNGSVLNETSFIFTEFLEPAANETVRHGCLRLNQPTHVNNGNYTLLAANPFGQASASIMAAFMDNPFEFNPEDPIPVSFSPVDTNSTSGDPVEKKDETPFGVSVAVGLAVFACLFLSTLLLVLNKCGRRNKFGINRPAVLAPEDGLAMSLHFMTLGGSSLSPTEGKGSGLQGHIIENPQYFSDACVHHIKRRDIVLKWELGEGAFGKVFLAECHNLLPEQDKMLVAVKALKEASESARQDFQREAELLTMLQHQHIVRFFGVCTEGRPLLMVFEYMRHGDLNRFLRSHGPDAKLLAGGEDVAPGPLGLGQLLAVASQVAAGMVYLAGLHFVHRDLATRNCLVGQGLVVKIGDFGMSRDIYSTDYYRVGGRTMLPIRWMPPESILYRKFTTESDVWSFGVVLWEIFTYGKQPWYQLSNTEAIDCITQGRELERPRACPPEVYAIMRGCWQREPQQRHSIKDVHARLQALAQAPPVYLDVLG

| SMILES | IC50 (TrkA kinase) [nM] | turbidity threshold (L, M, H) 1.4 [1] | turbidity threshold (L, M, H) 4.5 [1] | turbidity threshold (L, M, H) 6.8 [1] | turbidity threshold (L, M, H) 7.4 [1] |
| --- | --- | --- | --- | --- | --- |
| Cc1cnc2[nH]cc(Cc3cnc(Nc4ccc(F)cc4)nc3)c2c1 [Compound P-3010, (4-Fluoro-phenyl)-[5-(5-methyl-1H-pyrrolo[2,3-b]pyridin-3-ylmethyl)-pyrimidin-2-yl]-amine] | < 1000 | H (high solubility if the threshold concentration is >250 μm) | L (low solubility if the threshold concentration is <31.3 μM) | L (low solubility if the threshold concentration is <31.3 μM) | M (moderate solubility if the threshold concentration is 31.3 μM to 250 μM) |
| CNc1ncnc2[nH]cc(C(=O)c3ccc(Nc4cncc(OC)c4)nc3F)c12 [Compound P-4108, [2-fluoro-6-[(5-methoxy-3-pyridyl)amino]-3-pyridyl]-[4-(methylamino)-7H-pyrrolo[2,3-d]pyrimidin-5-yl]methanone] | < 100 | H (high solubility if the threshold concentration is >250 μm) | M (moderate solubility if the threshold concentration is 31.3 μM to 250 μM) | M (moderate solubility if the threshold concentration is 31.3 μM to 250 μM) | M (moderate solubility if the threshold concentration is 31.3 μM to 250 μM) |
| CC(C)Nc1ncnc2[nH]cc(C(=O)c3ccc(NC4CCCCC4)nc3Cl)c12 [Compound P-4109, [2-chloro-6-(cyclohexylamino)-3-pyridyl]-[4-(isopropylamino)-7H-pyrrolo[2,3-d]pyrimidin-5-yl]methanone] | < 100 | L (low solubility if the threshold concentration is <31.3 μM) | L (low solubility if the threshold concentration is <31.3 μM) | L (low solubility if the threshold concentration is <31.3 μM) | L (low solubility if the threshold concentration is <31.3 μM) |
| CNc1ncnc2[nH]cc(C(=O)c3ccc(NC4CCC(F)(F)CC4)nc3F)c12 [Compound P-4063, [6-[(4,4-difluorocyclohexyl)amino]-2-fluoro-3-pyridyl]-[4-(methylamino)-7H-pyrrolo[2,3-d]pyrimidin-5-yl]methanone] | < 10 | M (moderate solubility if the threshold concentration is 31.3 μM to 250 μM) | M (moderate solubility if the threshold concentration is 31.3 μM to 250 μM) | M (moderate solubility if the threshold concentration is 31.3 μM to 250 μM) | M (moderate solubility if the threshold concentration is 31.3 μM to 250 μM) |
| COc1ccc(Nc2ccc(C(=O)c3c[nH]c4ncnc(N5CCOCC5)c34)c(F)n2)cn1 [Compound P-4070, [2-fluoro-6-[(6-methoxy-3-pyridyl)amino]-3-pyridyl]-(4-morpholino-7H-pyrrolo[2,3-d]pyrimidin-5-yl)methanone] | > 1000 | H (high solubility if the threshold concentration is >250 μm) | M (moderate solubility if the threshold concentration is 31.3 μM to 250 μM) | M (moderate solubility if the threshold concentration is 31.3 μM to 250 μM) | M (moderate solubility if the threshold concentration is 31.3 μM to 250 μM) |
| CCC(CC)Nc1ncnc2[nH]cc(C(=O)c3ccc(Nc4ccc(OC)nc4)nc3F)c12 [Compound P-4077, [4-(1-ethylpropylamino)-7H-pyrrolo[2,3-d]pyrimidin-5-yl]-[2-fluoro-6-[(6-methoxy-3-pyridyl)amino]-3-pyridyl]methanone] | < 10 | M (moderate solubility if the threshold concentration is 31.3 μM to 250 μM) | L (low solubility if the threshold concentration is <31.3 μM) | L (low solubility if the threshold concentration is <31.3 μM) | L (low solubility if the threshold concentration is <31.3 μM) |
| CCNc1ncnc2[nH]cc(C(=O)c3ccc(Nc4ccc(OC)nc4)nc3F)c12 [Compound P-4081, [4-(ethylamino)-7H-pyrrolo[2,3-d]pyrimidin-5-yl]-[2-fluoro-6-[(6-methoxy-3-pyridyl)amino]-3-pyridyl]methanone] | < 10 | H (high solubility if the threshold concentration is >250 μm) | M (moderate solubility if the threshold concentration is 31.3 μM to 250 μM) | H (high solubility if the threshold concentration is >250 μm) | M (moderate solubility if the threshold concentration is 31.3 μM to 250 μM) |
| O=C(c1ccc(NC2CCC(F)(F)CC2)nc1F)c1c[nH]c2ncnc(NCC(F)(F)F)c12 [Compound P-4061, [6-[(4,4-difluorocyclohexyl)amino]-2-fluoro-3-pyridyl]-[4-(2,2,2-trifluoroethylamino)-7H-pyrrolo[2,3-d]pyrimidin-5-yl]methanone] | < 100 | M (moderate solubility if the threshold concentration is 31.3 μM to 250 μM) | L (low solubility if the threshold concentration is <31.3 μM) | M (moderate solubility if the threshold concentration is 31.3 μM to 250 μM) | M (moderate solubility if the threshold concentration is 31.3 μM to 250 μM) |
| CCCCNc1ncnc2[nH]cc(C(=O)c3ccc(Nc4ccc(CC)nc4)nc3F)c12 [Compound P-4100, [4-(butylamino)-7H-pyrrolo[2,3-d]pyrimidin-5-yl]-[6-[(6-ethyl-3-pyridyl)amino]-2-fluoro-3-pyridyl]methanone] | < 100 | H (high solubility if the threshold concentration is >250 μm) | M (moderate solubility if the threshold concentration is 31.3 μM to 250 μM) | M (moderate solubility if the threshold concentration is 31.3 μM to 250 μM) | M (moderate solubility if the threshold concentration is 31.3 μM to 250 μM) |
| CCCCNc1ncnc2[nH]cc(C(=O)c3ccc(Nc4ccc(OC)nc4)nc3F)c12 [Compound P-4080, [4-(butylamino)-7H-pyrrolo[2,3-d]pyrimidin-5-yl]-[2-fluoro-6-[(6-methoxy-3-pyridyl)amino]-3-pyridyl]methanone] | < 10 | M (moderate solubility if the threshold concentration is 31.3 μM to 250 μM) | M (moderate solubility if the threshold concentration is 31.3 μM to 250 μM) | H (high solubility if the threshold concentration is >250 μm) | M (moderate solubility if the threshold concentration is 31.3 μM to 250 μM) |
| COc1ccc(Nc2ccc(C(=O)c3c[nH]c4ncnc(NC(C)C)c34)c(F)n2)cn1 [Compound P-4066, [2-fluoro-6-[(6-methoxy-3-pyridyl)amino]-3-pyridyl]-[4-(isopropylamino)-7H-pyrrolo[2,3-d]pyrimidin-5-yl]methanone] | < 10 | M (moderate solubility if the threshold concentration is 31.3 μM to 250 μM) | L (low solubility if the threshold concentration is <31.3 μM) | L (low solubility if the threshold concentration is <31.3 μM) | M (moderate solubility if the threshold concentration is 31.3 μM to 250 μM) |
